Data: patent publication US20060167046A1, “Histamine h3 receptor antagonists, preparation and therapeutic uses” (Eli Lilly and Company Patent Division, priority 2002, published 2006)
pKi: −log10 of the molar value.

Target: T1, H3R membranes (H3R8-expressing HEK293 cell line) (Homo sapiens, UniProt Q9Y5N1)
T1 construct: expressed in transfected cells
Assay: [35S]GTPγS binding assay, H3R membranes in the presence of agonist
Type: biochemical
Conditions: inhibition of [35S]GTPγS binding to H3R membranes in presence of agonist R(-)alpha methylhistamine; room temperature, pH 7.4
Method: Membranes isolated as described in (Preparation of Histamine Receptor Subtype Membranes) were used in a [^35S]GTPχS functional assay. Binding of [^35S]GTPχS to membranes indicates agonist activity. Compounds of the invention of Formula I were tested for their ability to inhibit binding in the presence of agonists. Alternately, the same transfected cell lines were used for a cAMP assay wherein H3R agonists inhibited forskolin-activated synthesis of cAMP. Compounds of Formula I were tested for their ability to permit forskolin-stimulated cAMP synthesis in the presence of agonist. cDNA for the human histamine 3 receptor was cloned and expressed as described in (A. Preparation H1R membranes), above. Transfected cells were selected using G418 ([…]), grown, and tested for histamine binding by the SPA described above. For total binding, cells were assayed in a SPA reaction described above containing 50 mM Tris-HCL (assay buffer), pH 7.6, 1 mg wheat germ agglutinin SPA beads (Amersham Pharmacia Biotech, #RPNQ0001), and 1 nM (^3H)-n-alpha-methylhistamine (NEN, NET1027) (total volume per well=200 μl). Thioperimide was added to determine non-specific binding. Several clones were selected as positive for binding, and a single clone (H3R8) was used to prepare membranes for binding studies described above. […] Plates were counted in Wallac Trilux 1450 Microbeta scintillation counter for 1 minute. […]

T1 sequence (Q9Y5N1 whole entry): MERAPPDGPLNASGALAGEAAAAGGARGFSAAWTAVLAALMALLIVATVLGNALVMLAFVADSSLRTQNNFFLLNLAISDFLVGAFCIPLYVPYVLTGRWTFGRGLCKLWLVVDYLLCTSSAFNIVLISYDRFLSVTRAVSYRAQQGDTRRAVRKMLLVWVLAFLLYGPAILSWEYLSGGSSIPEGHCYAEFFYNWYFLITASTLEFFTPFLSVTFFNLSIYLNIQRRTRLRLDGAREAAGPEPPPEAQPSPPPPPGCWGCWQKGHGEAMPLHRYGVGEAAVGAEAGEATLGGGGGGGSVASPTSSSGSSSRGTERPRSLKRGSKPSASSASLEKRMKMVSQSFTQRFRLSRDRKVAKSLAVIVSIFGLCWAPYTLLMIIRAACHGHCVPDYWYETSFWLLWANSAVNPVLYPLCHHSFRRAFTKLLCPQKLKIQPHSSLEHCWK

| pKi | SMILES |
| --- | --- |
| 7.90 | O=C(c1cccs1)N1CCCc2ccc(OCCCN3CCCCC3)cc21 [Example 6, [7-(3-Piperidin-1-yl-propoxy)-3,4-dihydro-2H-quinolin-1-yl]-thiophen-2-yl-methanone] |
| 9.30 | CN1CCC[C@H]1CN1CCc2cc(OCCCN3CCCCC3)ccc21 [Example 60, (S)-1-(1-Methyl-pyrrolidin-2-ylmethyl)-5-(3-piperidin-1-yl-propoxy)-2,3-dihydro-1H-indole] |
